Columns and labels:
[1] = as series B (acyl azide from hydrazide, MeCN cosolvent), isolated after prep HPLC; conditions: the molecule shown is the open-chain precursor, aq phosphate buffer (6 M GdmCl) diluted with 2 vol 50% MeCN/water, 4.0 mM, 2 steps
[2] = head-to-tail lactamisation of unprotected peptide acyl azide (from C-terminal hydrazide, 20 equiv NaNO2, pH 3, -15 C, then NaHCO3 to pH ~7), biphasic EtOAc/buffer; conditions: 21-membered ring, aq phosphate buffer (6 M GdmCl, 50 mM NaH2PO4, 1.5 mM EDTA) / EtOAc biphasic, 3.0 mM, 0.25 h, 2 steps
[3] = as series A (acyl azide from hydrazide, biphasic EtOAc/buffer), isolated after prep HPLC; conditions: 21-membered ring, aq phosphate buffer (6 M GdmCl) / EtOAc biphasic, 3.0 mM, 0.25 h, 2 steps
[4] = from C=CC[C@H](NC(=O)[C@H](CC(C)C)NC(=O)[C@H](CC(C)C)N(C)C(=O)[C@H](CO)NC(=O)[C@H](Cc1ccc(O)c([N+](=O)[O-])c1)NC(=O)[C@H](CC(C)C)N(C)C(=O)[C@@H](N)Cc1c[nH]c2ccccc12)C(=O)N=[N+]=[N-]
[5] = from C=CC[C@H](NC(=O)[C@H](CC(C)C)NC(=O)[C@H](CC(C)C)N(C)C(=O)[C@@H](NC(=O)[C@H](Cc1ccc(O)c([N+](=O)[O-])c1)NC(=O)[C@H](CC(C)C)N(C)C(=O)[C@@H](N)Cc1c[nH]c2ccccc12)[C@@H](C)O)C(=O)N=[N+]=[N-]

Question: Which ring closure, yield over several steps ([1]; 23-membered ring) does the source give for `CCCCC(C)CCC(=O)N[C@@H](CCN)C(=O)N[C@H](C(=O)N[C@@H](CCN)C(=O)N[C@@H](CCN)C(=O)N[C@@H](CCN)C(=O)N[C@H](CC(C)C)C(=O)N[C@@H](CC(C)C)C(=O)N[C@@H](CCN)C(=O)N[C@@H](CCN)C(=O)N[C@H](C(=O)N=[N+]=[N-])[C@@H](C)O)[C@@H](C)O` (some centres unmarked) here?
Answer: The ring closure, yield over several steps was 3%.

Question: For `CC(=O)N[C@@H](Cc1ccccc1)C(=O)N[C@@H](CCCN)C(=O)N1CCC[C@H]1C(=O)N[C@H](Cc1ccc(O)cc1)C(=O)N[C@@H](Cc1c[nH]c2ccccc12)C(=O)N[C@@H](CCCNC(=N)N)C(=O)N=[N+]=[N-]` [Ac-Phe-Orn(cyclises via side chain)-Pro-D-Tyr-Trp-Arg-N3], which ring closure, yield over several steps ([1]; 18-membered ring) is on record?
Answer: The ring closure, yield over several steps was 62%.

Question: With `CC(C)C[C@H](NC(=O)[C@H](CCCN)NC(=O)[C@@H](NC(=O)[C@H](Cc1ccc(O)cc1)NC(=O)[C@H](CCC(N)=O)NC(=O)[C@H](CC(N)=O)NC(=O)[C@@H](Cc1ccccc1)NC(=O)[C@H](Cc1ccccc1)NC(=O)[C@@H]1CCCN1C(=O)[C@H](N)Cc1ccccc1)C(C)C)C(=O)N=[N+]=[N-]` [H-D-Phe-Pro-Phe-D-Phe-Asn-Gln-Tyr-Val-Orn-Leu-N3] as the compound, how does the ring closure, yield over several steps ([1]; 30-membered ring, 0.25 h) read?
Answer: Its ring closure, yield over several steps is 68%.

Question: With `CC(C)C[C@H](NC(=O)[C@H](CCCN)NC(=O)[C@@H](NC(=O)[C@@H]1CCCN1C(=O)[C@@H](Cc1ccccc1)NC(=O)[C@H](CC(C)C)NC(=O)[C@H](CCCN)NC(=O)[C@@H](NC(=O)[C@@H]1CCCN1C(=O)[C@H](N)Cc1ccccc1)C(C)C)C(C)C)C(=O)N=[N+]=[N-]` [H-D-Phe-Pro-Val-Orn-Leu-D-Phe-Pro-Val-Orn-Leu-N3] as the compound, how does the ring closure, yield over several steps ([1]; 30-membered ring) read?
Answer: Its ring closure, yield over several steps is 63%.

Question: Which ring closure, yield over several steps ([1]; 15-membered ring) does the source give for `CC(C)C[C@H](NC(=O)[C@H](Cc1ccc(O)cc1)NC(=O)[C@@H]1CCCN1C(=O)CN)C(=O)N[C@@H](C)C(=O)N=[N+]=[N-]` [H-Gly-Pro-Tyr-Leu-Ala-N3] here?
Answer: The ring closure, yield over several steps was 51%.

Question: For `CSCC[C@H](NC(=O)[C@@H](NC(=O)[C@H](CC(C)C)NC(=O)CNC(=O)[C@@H]1CCCN1C(=O)[C@@H](NC(=O)CNC(=O)[C@@H](N)Cc1ccccc1)C(C)C)C(C)C)C(=O)N=[N+]=[N-]` [H-Phe-Gly-Val-Pro-Gly-Leu-Val-Met-N3], which ring closure, yield over several steps ([1]; 24-membered ring) is on record?
Answer: Its ring closure, yield over several steps is 12%.

Question: Which ring closure, yield over several steps ([1]; 24-membered ring) does the source give for `CC[C@H](C)[C@H](NC(=O)CNC(=O)[C@H](CO)NC(=O)[C@@H]1CCCN1C(=O)[C@@H](NC(=O)[C@@H]1CCCN1)C(C)C)C(=O)N[C@@H](Cc1ccccc1)C(=O)NCC(=O)N=[N+]=[N-]` [H-Pro-Val-Pro-Ser-Gly-Ile-Phe-Gly-N3] here?
Answer: Its ring closure, yield over several steps is 42%.

Question: Which ring closure, conversion by HPLC [2, 4] does the source give for `C=CC[C@@H]1NC(=O)[C@H](CC(C)C)NC(=O)[C@H](CC(C)C)N(C)C(=O)[C@H](CO)NC(=O)[C@H](Cc2ccc(O)c([N+](=O)[O-])c2)NC(=O)[C@H](CC(C)C)N(C)C(=O)[C@H](Cc2c[nH]c3ccccc23)NC1=O` [H-Trp-N-Me-Leu-Tyr(3-NO2)-Ser-N-Me-Leu-Leu-allylGly-N3] here?
Answer: Its ring closure, conversion by HPLC is 84%.

Question: And the ring closure, yield over several steps [3, 4]?
Answer: Its ring closure, yield over several steps is 42%.

Question: What does the source list for `C=CC[C@@H]1NC(=O)[C@H](CC(C)C)NC(=O)[C@H](CC(C)C)N(C)C(=O)[C@H]([C@@H](C)O)NC(=O)[C@H](Cc2ccc(O)c([N+](=O)[O-])c2)NC(=O)[C@H](CC(C)C)N(C)C(=O)[C@H](Cc2c[nH]c3ccccc23)NC1=O` [H-Trp-N-Me-Leu-Tyr(3-NO2)-Thr-N-Me-Leu-Leu-allylGly-N3]?
Answer: ring closure, conversion by HPLC [2, 5]: 78%; ring closure, yield over several steps [3, 5]: 35%
